What all share (assay): NCI anticancer screen, dose series, 48 h
Assay [1] relates to SF-295.
The test system of assay [2] is TK-10.
For assay [3], the system named is A498.
Assay [4] has as its system SNB-19.
Assay [5] concerns SK-MEL-28.
Assay [6] concerns CCRF-CEM.
Assay [7] relates to OVCAR-3.
Assay [8] relates to HCT-15.
In assay [9] the test system is OVCAR-5.
For assay [10], the system named is K562.
The test system of assay [11] is COLO 205.
Assay [12] concerns ACHN.
Assay [13] concerns LOX IMVI.
Assay [14] has as its system HCC 2998.
Assay [15] has as its system EKVX.
The test system of assay [16] is OVCAR-4.
Assay [17] deals with CAKI-1.
Assay [18] has as its system SF-539.
Assay [19] concerns UACC-257.
In assay [20] the test system is HOP-92.

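These data come from cells grown in 96-well plates and exposed to compound for 48 hours at five concentrations. GI50 = concentration required for 50% inhibition of growth.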 The source made the active and inactive calls. Rule as the data show it: active = GI50 up to about 1.1 µM and inactive = higher.

Turning to `CC(NNC(=O)c1cc[n+]([BH2-]C#N)cc1)c1ccc(F)cc1` (stereo not given), the GI50 in assay [1], in [2], in [3], in [4], in [5] and in assay [6] was > 100 µM (inactive) throughout. For the same molecule, the GI50 in assay [7] was > 100 µM (inactive); in assay [8] it was greater than 100 µM; in [9], > 100 µM (inactive); in assay [10] it was > 100 µM (inactive); in assay [11], > 100 µM (inactive); in assay [12], > 100 µM (inactive). Besides, the GI50 in [13], in [14], in [15], in assay [16], in [17] and in assay [18] was > 100 µM (inactive) each time. Further, the GI50 in assay [19] and in assay [20] was > 100 µM (inactive) each time.

As to `COc1ccc(-c2cc(=O)c3ccccc3o2)cc1N`, the GI50 is 41.7 µM (inactive) in assay [1]; > 100 µM (inactive) in [2]; 37.4 µM (inactive) in assay [3]; 60.4 µM (inactive) in [4]; 57.8 µM (inactive) in [5]; 28.6 µM (inactive) in assay [6]. Moreover, the GI50 was 31.8 µM (inactive) in assay [7]; 46.6 µM in assay [8]; 56 µM (inactive) in [9]; 12.2 µM (inactive) in [10]; 33.4 µM (inactive) in [11]; 37.1 µM (inactive) in assay [12]. Moreover, the GI50 in [13] is 34.6 µM (inactive); in assay [14] it was 38 µM (inactive); in [15], 16.4 µM (inactive); in [16], 40.9 µM (inactive); in [17] it was 18.7 µM (inactive); in assay [18], 33.9 µM (inactive). Also, the GI50 in assay [19] was 51.3 µM (inactive); in assay [20] it was 76.2 µM (inactive).

In the case of `C[C@@H](CC(O)C(O)C(C)(C)O)C1CCC23CC12CCC1[C@@]2(C)CCC(O)C(C)(C)C2CC(OC2OC(CO)C(O)C(O)C2O)[C@]13C` (stereo not given in full), the GI50 in [1], in assay [2], in assay [3], in assay [4], in assay [5] and in assay [6] was > 10 µM (inactive) throughout. The GI50 is > 10 µM (inactive) in [7]; greater than 10 µM in assay [8]; > 10 µM (inactive) in assay [9]; > 10 µM (inactive) in assay [10]; > 10 µM (inactive) in [11]; > 10 µM (inactive) in assay [12]. In addition, the GI50 in assay [13], in assay [14], in [15], in assay [16], in assay [17] and in [18] was > 10 µM (inactive) in each case. Besides, the GI50 in assay [19] and in [20] was > 10 µM (inactive) throughout.

The record behind these values is ChEMBL document CHEMBL1201862, “PubChem BioAssay data set” (2004).
